Measured values reported in article PMC5199340, “RET Functions as a Dual-Specificity Kinase that Requires Allosteric Inputs from Juxtamembrane Elements” (Cell Reports, 2016).

Key:
RET [1] = target: T1, RET (Homo sapiens, UniProt P07949); assay: isothermal titration calorimetry (ITC); format: binding
T1 construct: RET JM-KD (residues 661–1012)
T1 sequence (P07949 661-1012): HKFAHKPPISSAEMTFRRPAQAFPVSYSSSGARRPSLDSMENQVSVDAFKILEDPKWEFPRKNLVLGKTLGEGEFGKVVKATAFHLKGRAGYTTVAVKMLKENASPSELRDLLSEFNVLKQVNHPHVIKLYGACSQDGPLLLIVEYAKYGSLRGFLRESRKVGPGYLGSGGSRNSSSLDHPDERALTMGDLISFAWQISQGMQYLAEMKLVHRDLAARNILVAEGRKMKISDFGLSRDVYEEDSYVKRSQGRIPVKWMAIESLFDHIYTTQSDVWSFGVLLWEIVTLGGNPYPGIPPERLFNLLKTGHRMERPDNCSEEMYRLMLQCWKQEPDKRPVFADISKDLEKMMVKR

RET [2] = target: T2, RET (Homo sapiens, UniProt P07949); assay: X-ray crystal structures ([…] Å and […] Å); format: binding
T2 construct: RET JM-KD (residues 659–1013), phosphorylated (Y809, Y905, S909, Y928)
T2 sequence (P07949 659-1013): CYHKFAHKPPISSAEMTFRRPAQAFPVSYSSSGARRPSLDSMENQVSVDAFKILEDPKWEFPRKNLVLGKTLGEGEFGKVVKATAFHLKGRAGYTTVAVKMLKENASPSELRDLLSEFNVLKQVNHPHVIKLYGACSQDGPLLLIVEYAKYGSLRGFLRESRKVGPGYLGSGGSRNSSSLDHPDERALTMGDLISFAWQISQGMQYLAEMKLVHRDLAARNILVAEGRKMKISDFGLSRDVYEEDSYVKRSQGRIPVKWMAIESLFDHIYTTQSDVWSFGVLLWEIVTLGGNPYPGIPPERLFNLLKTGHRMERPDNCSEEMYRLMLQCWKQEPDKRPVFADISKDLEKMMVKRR

`Nc1ncnc2c1ncn2[C@@H]1O[C@H](COP(=O)(O)OP(=O)(O)OP(=O)(O)O)[C@@H](O)[C@H]1O` [ATP] showed a Kd (RET [1]) of 37.5 ± 3.1 µM.
For `Cc1ccc(-c2nn(C(C)(C)C)c3ncnc(N)c23)cc1` [PP1], the “X-ray crystal structures (2.95 Å and 3.3 Å)” value (RET [2]) was “Both crystal structures contained the PP1 tyrosine kinase inhibitor in the nucleotide-binding pocket”.
